Where “and” joins values, the source holds several entries; their conditions need not be identical. Identical values can stand only once.
Experiments:
[1] = for vapor or sublimation pressure: Transpiration method; for Normal melting temperature: DTA
[2] = Molar enthalpy of transition or fusion; conditions: Crystal; DSC
[3] = Boiling temperature at pressure P; conditions: Liquid, Distillation

Cc1cn[nH]c1 [4-methylpyrazole]
[1], Liquid
Conditions | vapor or sublimation pressure [kPa]
296 K | 0.0098
301 K | 0.0149
305.9 K | 0.0226
310.8 K | 0.0339
315.8 K | 0.0494
320.9 K | 0.0719
325.7 K | 0.099
330.6 K | 0.1457
335.6 K | 0.2071
340.6 K | 0.2879

Cc1cc(C)n(C)n1 [1,3,5-trimethylpyrazole]
Conditions | Molar enthalpy of transition or fusion [kcal/mol]
[2] | 4.21

[1]
Conditions | vapor or sublimation pressure
282 K, Crystal | 0.0479 kPa
284 K, Crystal | 0.0583 kPa
287 K, Crystal | 0.0816 kPa
288.7 K, Crystal | 0.0998 kPa
291.7 K, Crystal | 0.1348 kPa
293.8 K, Crystal | 0.1707 kPa
296.7 K, Crystal | 0.2266 kPa
298.7 K, Crystal | 0.2751 kPa and 0.2814 kPa
301.7 K, Crystal | 0.376 kPa
301.9 K, Crystal | 0.3776 kPa
303 K, Crystal | 0.4153 kPa
303.9 K, Crystal | 0.4496 kPa
306.8 K, Crystal | 0.5927 kPa
315.6 K, Liquid | 0.934 kPa
320.8 K, Liquid | 1.297 kPa
325.7 K, Liquid | 1.793 kPa
326.4 K, Liquid | 1.878 kPa
330.5 K, Liquid | 2.376 kPa
331.4 K, Liquid | 2.585 kPa
334.1 K, Liquid | 2.995 kPa
336 K, Liquid | 3.202 kPa
336.4 K, Liquid | 3.436 kPa
338.9 K, Liquid | 3.803 kPa
341.4 K, Liquid | 4.545 kPa
343.4 K, Liquid | 4.993 kPa
346.4 K, Liquid | 5.866 kPa

Conditions | Normal melting temperature [°C]
[1], Crystal | 39.4

c1ccc(-n2cccn2)cc1 [1-phenylpyrazole]
[1], Liquid
Conditions | vapor or sublimation pressure [kPa]
294.2 K | 0.00258
295.2 K | 0.00284
297.2 K | 0.00324
303.2 K | 0.00556
309.1 K | 0.00913
315 K | 0.01461
320.9 K | 0.02221
327 K | 0.03352
332.8 K | 0.05146
338.9 K | 0.07723
344.9 K | 0.1082
350.8 K | 0.1589
354.8 K | 0.2072
360.8 K | 0.2918

c1ccc2[nH]ncc2c1 [1,2-diazaindene]
[1], Crystal
Conditions | vapor or sublimation pressure
323.3 K | 0.00069 kPa
326.3 K | 0.00098 kPa
330.3 K | 0.00152 kPa
331.3 K | 0.00161 kPa
336.3 K | 0.00272 kPa
338.3 K | 0.00329 kPa
341.3 K | 0.00443 kPa
343.3 K | 0.00515 kPa and 0.00524 kPa
345.2 K | 0.00661 kPa
346.3 K | 0.00723 kPa
348.3 K | 0.00826 kPa
350.3 K | 0.01023 kPa
353.2 K | 0.01343 kPa
356.2 K | 0.01763 kPa
358.2 K | 0.0211 kPa
361.2 K | 0.02725 kPa

Cn1cccn1 [1-methyl-1H-pyrazole]
[1], Liquid
Conditions | vapor or sublimation pressure [kPa]
273.4 K | 0.3007
276.4 K | 0.3722
277.2 K | 0.3818
278.7 K | 0.4304
281.6 K | 0.5225
281.8 K | 0.5148
283.3 K | 0.5843
284.6 K | 0.6386
286.5 K | 0.7077
287.8 K | 0.7821
288.3 K | 0.8074
290.5 K | 0.9287
291.4 K | 0.9834
292.5 K | 1.077
294.4 K | 1.195
296.5 K | 1.365
297.4 K | 1.456
298.8 K | 1.576
302.4 K | 1.989
304.7 K | 2.313
306.6 K | 2.528
308.2 K | 2.753

Cc1cc(C)[nH]n1 [3,5-dimethylpyrazole]
Conditions | Molar enthalpy of transition or fusion [kcal/mol]
[2] | 3.85

[1], Crystal
Conditions | vapor or sublimation pressure [kPa]
323.3 K | 0.0136
325.9 K | 0.0179
326.3 K | 0.019
328.3 K | 0.0224
330.3 K | 0.028
333.3 K | 0.0361
333.5 K | 0.0368
336.3 K | 0.0473
338.2 K | 0.0538
343.3 K | 0.0846
345.7 K | 0.1033
348.3 K | 0.1257
350.7 K | 0.1591
350.8 K | 0.1585
353.2 K | 0.1955
354.3 K | 0.2107
356.4 K | 0.2524

Conditions | Normal melting temperature [°C]
[1], Crystal | 109.1

c1cn[nH]c1 [1H-pyrazole]
[1], Crystal
Conditions | vapor or sublimation pressure [kPa]
308.4 K | 0.0499
310.8 K | 0.0628
313.4 K | 0.08
315.8 K | 0.1
318.2 K | 0.1258
323.3 K | 0.189
328.3 K | 0.287
330.9 K | 0.3495
333.3 K | 0.4255
335.8 K | 0.5187
338.3 K | 0.6278

Cc1cc[nH]n1 [3-methylpyrazole]
[1], Liquid
Conditions | vapor or sublimation pressure [kPa]
306.3 K | 0.0252
308.7 K | 0.0308
311.2 K | 0.0369
313.8 K | 0.0443
316.3 K | 0.0568
318.2 K | 0.063
321.2 K | 0.0821
323.8 K | 0.0978
326.2 K | 0.1165
328.8 K | 0.142
333.2 K | 0.1924

CCn1cccn1 [1-ethylpyrazole]
[1], Liquid
Conditions | vapor or sublimation pressure
275.2 K | 0.1828 kPa and 0.1776 kPa
279.2 K | 0.2485 kPa
280.2 K | 0.2616 kPa
283.2 K | 0.3347 kPa
285.2 K | 0.3759 kPa
287.2 K | 0.4482 kPa
290.2 K | 0.5448 kPa
291.2 K | 0.5877 kPa
294.2 K | 0.7128 kPa
295.2 K | 0.7543 kPa
298.2 K | 0.9478 kPa
300.2 K | 1.073 kPa
302.2 K | 1.237 kPa
303.2 K | 1.3 kPa
305.2 K | 1.539 kPa
306.2 K | 1.63 kPa
311.2 K | 2.194 kPa

Conditions | Boiling temperature at pressure P [°C]
[3], 7.2 kPa | 60

c1ccc(Cn2cccn2)cc1 [1-benzylpyrazole]
[1], Liquid
Conditions | vapor or sublimation pressure
298.2 K | 0.00147 kPa
310.2 K | 0.0043 kPa
314.2 K | 0.00615 kPa
318.2 K | 0.00882 kPa
322.2 K | 0.0119 kPa
326.2 K | 0.0166 kPa and 0.0168 kPa
330.2 K | 0.0225 kPa
334.2 K | 0.0311 kPa
338.2 K | 0.0421 kPa
342.2 K | 0.0559 kPa
346.2 K | 0.0713 kPa
350.2 K | 0.0969 kPa
354.2 K | 0.1228 kPa
358.2 K | 0.159 kPa

Conditions | Boiling temperature at pressure P [°C]
[3], 0.6 kPa | 109
